Reference: ChEMBL document CHEMBL1127416, “GC sequence specific recognition by an N-formamido, C-terminus-modified and imidazole-containing analogue of netropsin” (J Med Chem, 1994)

Key:
Assay type in all cases: nucleic-acid assay
Nucleic Acid [1] = experiment: The binding constants against calf thymus DNA; conditions: Bos taurus
Nucleic Acid [2] = experiment: The binding constants against T4 coliphage DNA
Nucleic Acid [3] = experiment: The binding constants against poly(dA-dT) DNA
Nucleic Acid [4] = experiment: The binding constants against […] DNA

Ka (Nucleic Acid [2]) [M⁻¹] | Ka (Nucleic Acid [3]) [M⁻¹] | Ka (Nucleic Acid [4]) [M⁻¹] | Compound | Ka (Nucleic Acid [1]) [M⁻¹]
19000 | 65000 | 105000 | CN(C)CCn1cc(NC(=O)c2nc(NC=O)cn2C)nc1C(N)=O | 137000
 |  |  | Cn1cc(NC(=O)c2cc(NC(=O)CNC(=N)N)cn2C)cc1C(=O)NCCC(=N)N | 1.87e+06
